Source: patent publication US9006232B2, “Pyrimidone derivatives” (Mitsubishi Tanabe Pharma Corporation, priority 2009, dated 2015)

biological target: bovine cerebral TPK1 (Bos taurus, UniProt A0A059UE90); experiment: Inhibitory activity against P-GS1 phosphorylation by bovine cerebral TPK1; format: biochemical; conditions: P-GS1 phosphorylation, 41.7 μM [γ-32P] ATP, 25° C., 2 hours; read-out: IC50
Procedure: Inhibitory Activity of the Medicament of the Present Invention Against P-GS1 Phosphorylation by Bovine Cerebral TPK1 […] The phosphorylation was started by adding ATP, and the reaction was conducted at 25° C. for 2 hours, and then stopped by adding 21% perchloric acid on ice cooling. The reaction mixture was centrifuged at 12,000 rpm for 5 minutes and adsorbed on P81 paper (Whatmann), and then the paper was washed four times with 75 mM phosphoric acid, three times with water and once with acetone. The paper was dried, and the residual radioactivity was measured using a liquid scintillation counter.

Chain of bovine cerebral TPK1 (A0A059UE90 1-419): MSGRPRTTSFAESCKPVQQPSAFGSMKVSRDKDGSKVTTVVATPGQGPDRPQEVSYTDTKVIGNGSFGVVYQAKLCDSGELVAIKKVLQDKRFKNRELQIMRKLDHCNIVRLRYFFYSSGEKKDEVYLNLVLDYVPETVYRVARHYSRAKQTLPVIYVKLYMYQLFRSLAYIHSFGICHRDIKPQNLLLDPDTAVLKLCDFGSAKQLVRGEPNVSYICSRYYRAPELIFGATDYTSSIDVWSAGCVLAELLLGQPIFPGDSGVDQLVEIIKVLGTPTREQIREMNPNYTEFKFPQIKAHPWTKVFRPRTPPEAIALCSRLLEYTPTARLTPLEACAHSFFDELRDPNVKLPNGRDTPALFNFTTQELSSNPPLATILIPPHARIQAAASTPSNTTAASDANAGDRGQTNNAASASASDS

Row | Structure (SMILES) | IC50
1 | Cn1c(OCC2CCN(c3ccc(CN4CCCCC4)cc3)CC2)nc(-c2ccncc2)cc1=O [1.232, 3-Methyl-2-[1-(4-piperidin-1-ylmethyl-phenyl)piperidin-4-ylmethoxy]-6-pyridin-4-yl-3H-pyrimidin-4-one] | 0.162 µM
2 | Cn1c(OCC2CCN(c3ccc(CN4CCCCC4)cc3)CC2)nc(-c2ccncn2)cc1=O [1.233, 1-Methyl-2-[1-(4-piperidin-1-ylmethyl-phenyl)piperidin-4-ylmethoxy]-1H-[4,4′] bipyrimidinyl-6-one] | 0.0416 µM
3 | Cn1c(OCC2CCN(c3ccc(CN4CCCCC4)cc3)CC2)nc(-c2ccncc2F)cc1=O [1.234, 6-(3-Fluoro-pyridin-4-yl)-3-methyl-2-[1-(4-piperidin-1-ylmethyl-phenyl)piperidin-4-ylmethoxy]-3H-pyrimidin-4-one] | 0.0156 µM
4 | CN1CCN(Cc2ccccc2N2CCC(Oc3nc(-c4ccncn4)cc(=O)n3C)CC2)CC1 [1.302, 1-Methyl-2-{1-[2-(4-methyl-piperazin-1-ylmethyl)phenyl]piperidin-4-yloxy}-1H-[4,4′]bipyrimidinyl-6-one] | 0.0149 µM
5 | Cn1c(OC2CCN(c3ccccc3CN3CCCCC3)CC2)nc(-c2ccncn2)cc1=O [1.303, 1-Methyl-2-[1-(2-piperidin-1-ylmethyl-phenyl)piperidin-4-yloxy]-1H-[4,4′]bipyrimidinyl-6-one] | 0.0512 µM
6 | Cn1c(OC2CCN(c3ccccc3CN3Cc4ccccc4C3)CC2)nc(-c2ccncn2)cc1=O [1.304, 2-{1-[2-(1,3-Dihydro-isoindol-2-ylmethyl)phenyl]piperidin-4-yloxy}-1-methyl-1H-[4,4′] bipyrimidinyl-6-one] | 0.0252 µM
7 | CN(C)Cc1ccccc1N1CCC(Oc2nc(-c3ccncn3)cc(=O)n2C)CC1 [1.305, 2-[1-(2-Dimethylaminomethyl-phenyl)piperidin-4-yloxy]-1-methyl-1H-[4,4′]bipyrimidinyl-6-one] | 0.0586 µM
8 | CN1CCC(CCN2CCC(Oc3nc(-c4ccncn4)cc(=O)n3C)CC2)CC1 [1.503, 1-Methyl-2-{1-[2-(1-methyl-piperidin-4-yl)ethyl]piperidin-4-yloxy)-1H-[4,4′]bipyrimidinyl-6-one] | 0.149 µM
9 | Cn1c(OC2CCN(Cc3ccccc3)CC2)nc(-c2ccncn2)cc1=O [1.504, 2-(1-Benzyl-piperidin-4-yloxy)-1-methyl-1H-[4,4′]bipyrimidinyl-6-one] | 0.955 µM
10 | CN1CCC(N2CCC(Oc3nc(-c4ccncn4)cc(=O)n3C)CC2)CC1 [1.505, 1-Methyl-2-(1′-methyl-[1,4′]bipiperidinyl-4-yloxy)-1H-[4,4′] bipyrimidinyl-6-one] | 0.395 µM
11 | Cn1c(OC2CCCCC2)nc(-c2ccncn2)cc1=O [1.802, 2-Cyclohexyloxy-1-methyl-1H-[4,4′]bipyrimidinyl-6-one] | 0.0226 µM
12 | CCC1CCCCC1Oc1nc(-c2ccncn2)cc(=O)n1C (stereo not shown) [1.803, 2-(2-Ethyl-cyclohexyloxy)-1-methyl-1H-[4,4′]bipyrimidinyl-6-one] | 0.948 µM
13 | Cn1c(OC2CCCC2)nc(-c2ccncn2)cc1=O [1.804, 2-Cyclopentyloxy-1-methyl-1H-[4,4′]bipyrimidinyl-6-one] | 0.1 µM
14 | Cn1c(OCCOc2ccccc2)nc(-c2ccncc2)cc1=O [1.805, 3-Methyl-2-(2-phenoxy-ethoxy)-6-pyridin-4-yl-3H-pyrimidin-4-one] | 0.37 µM
15 | Cn1c(OCCSc2ccccc2)nc(-c2ccncc2)cc1=O [1.806, 3-Methyl-2-(2-phenylsulfanyl-ethoxy)-6-pyridin-4-yl-3H-pyrimidin-4-one] | 0.055 µM
16 | Cn1c(OCCNc2ccccc2)nc(-c2ccncc2)cc1=O [1.807, 3-Methyl-2-(2-phenylamino-ethoxy)-6-pyridin-4-yl-3H-pyrimidin-4-one] | 0.099 µM

Row | Structure (SMILES) | IC50
17 | CCN(CCOc1nc(-c2ccncc2F)cc(=O)n1C)c1cccc(C)c1 [1.808, 2-[2-(Ethyl-m-tolyl-amino)-ethoxy]-6-(3-fluoro-pyridin-4-yl)-3-methyl-3H-pyrimidin-4-one] | 0.067 µM
18 | CCN(CCOc1nc(-c2ccncn2)cc(=O)n1C)c1cccc(C)c1 [1.809, 2-[2-(Ethyl-m-tolyl-amino)-ethoxy]-1-methyl-1H-[4,4′] bipyrimidinyl-6-one] | 0.431 µM
19 | Cn1c(OCCCc2cccnc2)nc(-c2ccncn2)cc1=O [1.810, 1-Methyl-2-(3-pyridin-3-yl-propoxy)-1H-[4,4′]bipyrimidinyl-6-one] | 0.201 µM
20 | Cn1c(OCCc2ccccc2)nc(-c2ccncc2)cc1=O [2.002, 3-Methyl-2-phenethyloxy-6-pyridin-4-yl-3H-pyrimidin-4-one] | 0.2 µM
21 | CCCCCCOc1nc(-c2ccncc2)cc(=O)n1C [2.003, 2-Hexyloxy-3-methyl-6-pyridin-4-yl-3H-pyrimidin-4-one] | 0.26 µM
22 | Cn1c(OC[C@H]2CCCN2c2ccc(F)cc2)nc(-c2ccncn2)cc1=O [2.202, 2-[(2R)-1-(4-Fluoro-phenyl)pyrrolidin-2-ylmethoxy]-1-methyl-1H-[4,4′]bipyrimidinyl-6-one] | 0.158 µM
23 | Cn1c(OC[C@H]2CCCN2c2ccc(F)cc2)nc(-c2ccncc2F)cc1=O [2.203, 2-[(2R)-1-(4-Fluoro-phenyl)pyrrolidin-2-ylmethoxy]-6-(3-fluoro-pyridin-4-yl)-3-methyl-3H-pyrimidin-4-one] | 0.0431 µM
24 | Cn1c(OC[C@@H]2CCCN2c2ccc(F)cc2)nc(-c2ccncn2)cc1=O [2.204, 2-[(2S)-1-(4-Fluoro-phenyl)pyrrolidin-2-ylmethoxy]-1-methyl-1H-[4,4′]bipyrimidinyl-6-one] | 0.0376 µM
25 | Cn1c(OC[C@@H]2CCCN2c2ccc(F)cc2)nc(-c2ccncc2F)cc1=O [2.205, 2-[(2S)-1-(4-Fluoro-phenyl)pyrrolidin-2-ylmethoxy]-6-(3-fluoro-pyridin-4-yl)-3-methyl-3H-pyrimidin-4-one] | 0.0184 µM
26 | Cn1c(OC[C@H]2CCN(c3ccccc3)C2)nc(-c2ccncn2)cc1=O [2.209, 1-Methyl-2-[(3S)-1-phenyl-pyrrolidin-3-ylmethoxy]-1H-[4,4′] bipyrimidinyl-6-one] | 0.941 µM
27 | Cn1c(OC[C@H]2CCN(c3ccccc3)C2)nc(-c2ccncc2F)cc1=O [2.210, 6-(3-Fluoro-pyridin-4-yl)-3-methyl-2-[(3S)-1-phenyl-pyrrolidin-3-ylmethoxy]-3H-pyrimidin-4-one] | 0.134 µM
28 | Cn1c(OCCc2ccccc2)nc(-c2ccncn2)cc1=O [2.302, 1-Methyl-2-phenethyloxy-1H-[4,4′]bipyrimidinyl-6-one] | 0.16 µM
29 | Cn1c(OC2CCCN(c3ccccc3)C2)nc(-c2ccncn2)cc1=O (stereo not shown) [Compound No. 1.101, 1-Methyl-2-(1-phenyl-piperidin-3-yloxy)-1H-[4,4′]bipyrimidinyl-6-one] | 0.0094 µM
30 | COC(=O)N1CCCC(Oc2nc(-c3ccncn3)cc(=O)n2C)C1 (stereo not shown) [Compound No. 1.102, Methyl 3-(1-methyl-6-oxo-1,6-dihydro-[4,4′]bipyrimidinyl-2-yloxy) piperidine-1-carboxylate] | 0.0282 µM
31 | Cn1c(OC2CCN(c3ccc(CN4CCN(C(=O)OC(C)(C)C)CC4)cc3)CC2)nc(-c2ccncn2)cc1=O [Compound No. 1.201, tert-Butyl 4-{4-[4-(1-methyl-6-oxo-1,6-dihydro-[4,4′]bipyrimidinyl-2-yloxy)piperidin-1-yl]benzyl}piperazine-1-carboxylate] | 0.0191 µM
